Test system: rumen fluid batch culture
Experiment: Rumen fluid batch culture test: volatile fatty acid, gas (CH4 + H2), protein and amino acid accumulation (Example 2)
Type: cell-based, steers
Set-up: HFo (formate) / HAc (acetate) / HPr (propionate) / HiBu (isobutyrate) / HBu (butyrate) / HiVal (isovalerate) / Total / Caloric Value of H2 / Caloric Value of HFo / Caloric Value of HAc / Caloric Value of HPr / Caloric Value of HiBu / Caloric Value of HBu / Caloric Value of HiVal / Caloric Value of CH3: unit not given here
Experimental: The above Formula IV composition was tested to determine its effectiveness as a feed additive for ruminants. The initial tests were in rumen fluid batch culture systems to determine the effect of the compound on volatile fatty acid/methane ratios (VFA/CH4). […] Test Procedure: A 50/50 mixture of ground corn and ground alfalfa was used as the substrate for the subject rumen fluid batch culture test. The compound (Formula IV ) was present in the rumen fluid in three separate test samples at 8.33, 25 and 75 ppm, respectively. On day 1, rumen fluid was obtained from mature fistulated steers on 50/50 concentrate/roughage diets. The rumen fluid (RF) was strained through three layers of gauze cloth and equilibrated with C02 gas. Wheaton serum vials (125 ml) were prepared ahead with 20 ml continuous batch buffer and 100 mg 50/50 ground corn/ground alfalfa. Controls and compounds (dissolved in acetone) were set up according to desired levels. The vials were kept under C02 gas until 20 ml of the strained RF was added. The vials were sealed and incubated at 39°C for 24 hours in a hot water bath. On successive days, gas samples (0.1 ml) were drawn for gas chromatography analysis before transferring 20 ml of the batch culture to another vial containing 20 ml of buffer, 100 mg substrate, and the corresponding compound. The remaining 20 ml was inoculated with 2 ml 6N HC1 and centrifuged at 15,000 rpm for 15 minutes. Ether extracts were prepared for volatile fatty acid (VFA) analysis. Some minor adjustments were made in the termperatures on the Hewlett-Packard 5750 Gas-Liquid Chromatograph used for VFA analysis when the glass column used was changed from 1/4 inch diameter to 1/8 inch diameter. Injection Port = 220°C Column Oven = 170°C Flame Detector = 250°C Only 4 minutes was needed to record the sample instead of the previous 7 minutes.

[1] = 8.33 μg/ml, total produced on Day 10

## 2,2'-(4,5-diphenyl-2H-imidazol-2-ylidene)bispyridine with CuCl2(1/1) [Formula IV Compound]
8.33 µg/ml, day 2
  AA: 0.16 µmol/mL
  CH4: 204 µ Moles
  H2: 0 µ Moles
  HAc (acetate): 43.83
  HBu (butyrate): 12.33
  HFo (formate): 1.48
  HPr (propionate): 11.81
  HiBu (isobutyrate): 1.27
  HiVal (isovalerate): 0
  Protein: 0 mg/mL
  Total: 70.71
8.33 µg/ml, day 3
  AA: 0.13 µmol/mL
  CH4: 157 µ Moles
  H2: 0 µ Moles
  HAc (acetate): 33.35
  HBu (butyrate): 9.87
  HFo (formate): 0.92
  HPr (propionate): 12.17
  HiBu (isobutyrate): 1.14
  HiVal (isovalerate): 1.14
  Protein: 0 mg/mL
  Total: 58.58
8.33 µg/ml, day 4
  CH4: 164 µ Moles
  H2: 0 µ Moles
  HAc (acetate): 34.54
  HBu (butyrate): 7.77
  HFo (formate): 0.40
  HPr (propionate): 13.16
  HiBu (isobutyrate): 0.68
  HiVal (isovalerate): 2.01
  Total: 58.54
8.33 µg/ml, day 5
  CH4: 181 µ Moles
  H2: 0 µ Moles
  HAc (acetate): 33.15
  HBu (butyrate): 7.14
  HFo (formate): 0.30
  HPr (propionate): 12.66
  HiBu (isobutyrate): 0.35
  HiVal (isovalerate): 1.17
  Total: 54.76
8.33 µg/ml, day 6
  AA: 0.11 µmol/mL
  CH4: 176 µ Moles
  H2: 0 µ Moles
  HAc (acetate): 29.32
  HBu (butyrate): 5.69
  HFo (formate): 1.02
  HPr (propionate): 11.08
  HiBu (isobutyrate): 0.46
  HiVal (isovalerate): 0
  Protein: 0 mg/mL
  Total: 47.57
8.33 µg/ml, day 7
  AA: 0.11 µmol/mL
  CH4: 139 µ Moles
  H2: 0 µ Moles
  HAc (acetate): 29.53
  HBu (butyrate): 4.39
  HFo (formate): 0.73
  HPr (propionate): 13.12
  HiBu (isobutyrate): 0.76
  HiVal (isovalerate): 0.77
  Protein: 0 mg/mL
  Total: 49.29
8.33 µg/ml, day 8
  AA: 0.09 µmol/mL
  CH4: 158 µ Moles
  H2: 0 µ Moles
  HAc (acetate): 26.19
  HBu (butyrate): 5.49
  HFo (formate): 0.55
  HPr (propionate): 13.48
  HiBu (isobutyrate): 0.65
  HiVal (isovalerate): 2.20
  Protein: 0 mg/mL
  Total: 48.55
8.33 µg/ml, day 9
  AA: 0.10 µmol/mL
  CH4: 157 µ Moles
  H2: 0 µ Moles
  HAc (acetate): 27.31
  HBu (butyrate): 3.06
  HFo (formate): 0.50
  HPr (propionate): 13.73
  HiBu (isobutyrate): 0.58
  HiVal (isovalerate): 0.55
  Protein: 0 mg/mL
  Total: 45.71
8.33 µg/ml, day 10
  AA: 0.24 µmol/mL
  CH4: 159 µ Moles
  H2: 0 µ Moles
  HAc (acetate): 24.52
  HBu (butyrate): 2.56
  HFo (formate): 0.23
  HPr (propionate): 12.89
  HiBu (isobutyrate): 0.21
  HiVal (isovalerate): 0.05
  Protein: 0 mg/mL
  Total: 40.45
8.33 µg/ml, produced on Day 10
  Caloric Value of CH3: 33.54
  Caloric Value of H2: 0
  Caloric Value of HAc: 90.96
  Caloric Value of HBu: 21.42
  Caloric Value of HFo: 0
  Caloric Value of HPr: 87.89
  Caloric Value of HiBu: 0
  Caloric Value of HiVal: 0
  Caloric Value, Total (VFA's): 200.27
  Total Cal in VFA & Gas: 233.79 cal
[1]
  CH4 produced on Day 10: 159
  H2 produced on Day 10: 0
  HAc (acetate) produced on Day 10: 434.4
  HBu (butyrate) produced on Day 10: 41.2
  HFo (formate) produced on Day 10: 0
  HPr (propionate) produced on Day 10: 240.8
  HiBu (isobutyrate) produced on Day 10: 0
  HiVal (isovalerate) produced on Day 10: 0
  Total VFA's produced on Day 10: 716.4
25 µg/ml, by day 10
  methane production: seemed to be recovering
25 µg/ml, day 2
  AA: 0.16 µ Moles/ml
  CH4: 197 µ Moles
  H2: 0 µ Moles
  HAc (acetate): 46.39
  HBu (butyrate): 10.94
  HFo (formate): 1.24
  HPr (propionate): 12.69
  HiBu (isobutyrate): 1.66
  HiVal (isovalerate): 2.55
  Protein: 0 mg/mL
  Total: 75.45
25 µg/ml, day 3
  AA: 0.17 µ Moles/ml
  CH4: 166 µ Moles
  H2: 0 µ Moles
  HAc (acetate): 35.36
  HBu (butyrate): 7.27
  HFo (formate): 1.05
  HPr (propionate): 12.93
  HiBu (isobutyrate): 1.21
  HiVal (isovalerate): 0.59
  Protein: 0 mg/mL
  Total: 58.40
25 µg/ml, day 4
  CH4: 164 µ Moles
  H2: 0 µ Moles
  HAc (acetate): 36.52
  HBu (butyrate): 6.38
  HFo (formate): 0.71
  HPr (propionate): 14.32
  HiBu (isobutyrate): 0.86
  HiVal (isovalerate): 1.33
  Total: 60.11
25 µg/ml, day 5
  CH4: 170 µ Moles
  H2: 0 µ Moles
  HAc (acetate): 34.06
  HBu (butyrate): 6.63
  HFo (formate): 0.44
  HPr (propionate): 14.87
  HiBu (isobutyrate): 0.56
  HiVal (isovalerate): 0.78
  Total: 57.33
25 µg/ml, day 6
  AA: 0.11 µ Moles/ml
  CH4: 143 µ Moles
  H2: 0 µ Moles
  HAc (acetate): 28.98
  HBu (butyrate): 4.26
  HFo (formate): 0.68
  HPr (propionate): 13.87
  HiBu (isobutyrate): 0.53
  HiVal (isovalerate): 0.20
  Protein: 0.01 mg/mL
  Total: 48.49
25 µg/ml, day 7
  AA: 0.24 µ Moles/ml
  CH4: 58 µ Moles
  H2: 8 µ Moles
  HAc (acetate): 22.54
  HBu (butyrate): 5.02
  HFo (formate): 0.61
  HPr (propionate): 13.54
  HiBu (isobutyrate): 0.75
  HiVal (isovalerate): 0.51
  Protein: 0 mg/mL
  Total: 42.95
25 µg/ml, day 8
  AA: 0.22 µ Moles/ml
